{
  "source": "patent US20180263985A1",
  "about": "“MODULATORS OF TOLL-LIKE RECEPTORS FOR THE TREATMENT OF HIV” (Gilead Sciences, Inc., priority 2015, published 2018)",
  "key": {"[1]": {"system": "serum cytokines and chemokines", "experiment": "Induction of cytokines and chemokines in serum of orally dosed Rhesus macaques (Luminex)", "format": "in vivo", "experimental": "The TLR8 modulator of Example 65 was formulated in 2% ethanol, 40% polyethylene glycol 300, and 58% 0.01 N hydrochloric acid. Oral solutions of formulations were prepared by dissolving a sufficient amount of the compound in the 2% ethanol, 40% polyethylene glycol 300, and 58% 0.01 N hydrochloric acid vehicle to arrive at 0.5, 1.5, or 5 mg/ml of Example 65. Rhesus macaques were dosed orally with 1.2 to 2 mls/kg to achieve dose levels of 1, 3, 6, or 10 mg/kg Example 65. Blood samples were collected at 2, 4, 8, 12, 24 and 48 hours postdose (FIG. 5) and allowed to clot under ambient conditions prior to centrifugation to obtain serum. The indicated cytokines and chemokines were quantified in serum with a multiplexed Luminex® assay following the manufacturer's instructions (Life Technologies). […] At 10 and 6 mg/kg, IL-12, IL-1RA and MCP-1 peaked near 10 ng/ml and IL-6 peaked at 1 ng/ml."}, "[2]": {"system": "HIV-specific polyfunctional CD8 T cells", "experiment": "Induced HIV-specific polyfunctional CD8+ T cells in PBMC cultures from HIV-1 infected subjects on cART", "format": "cell-based, human", "settings": "for Median HIV-specific polyfunctional CD8 T cells (% proliferating CD8+ cells double positive for IFN-γ and TNF-α): HIV peptide pool, 5 subjects"}, "[3]": {"system": "PBMC cultures from HIV-1 infected subjects on cART", "experiment": "Induced HIV-1 expression in PBMC cultures, HIV-1 RNA in supernatant after 4 days (COBAS TaqMan HIV-1 Test)", "format": "cell-based, human", "settings": "for Geometric Mean with ≥2-Fold-Activation / Range with ≥2-Fold-Activation: N = 5; for N with ≥2-Fold-Activation: subjects; for Fold HIV-1 Activation: vs DMSO", "experimental": "In some experiments, IL-15, the TLR8 modulating compound of Example 15 or the combination of IL-15 and Example 15 were used at the indicated concentrations (Table 4). The cultures were maintained in the presence of antivirals (elvitegravir and efavirenz at 100 nM each) to prevent viral spread and amplification in order to measure the quantity of virus produced (latency reversal) by the TLR8 modulating compounds. At the end of the incubation period, cell-free culture supernatants were harvested and HIV-1 RNA levels were quantified by the COBAS® AmpliPrep/COBAS®TaqMan HIV-1 Test, v2.0 (Roche).\nIn each table, fold-activation is calculated as a ratio of HIV-1 RNA copies per ml of cell culture supernatants from TLR8 agonist treated samples and DMSO treated controls. Geometric mean fold-activation from three independent incubation samples for each condition of each subject's PBMCs. Values in bold indicate ≥2-fold HIV activation.\nTo assess if the latency reversal induced by TLR8 agonism could further potentiate latency reversal by a separate mechanisms, we treated cells as described above with IL-15, Example 15, or a combination of IL-15 and Example 15 (Table 4)."}},
  "note": "“And” between values parts separate entries of the source, which are not always exact repeats. Identical values can stand only once.",
  "data": [
    {"molecule": "CCCC[C@](C)(CNC(C)=O)Nc1nc(N)nc2cc(Cl)cnc12", "note": "[Example 65]", "values": [
      {"measurement": "Induction of cytokines associated with TLR8 activation (IL-12, IL-6, IL-1RA, MCP-1) in serum", "setting": "[1]; oral 1, 3, 6, or 10 mg/kg", "result": "induced in a dose-dependent manner"},
      {"measurement": "IL-1RA peak serum concentration", "setting": "[1]; oral 10 and 6 mg/kg", "result": "~10", "unit": "ng/mL"},
      {"measurement": "IL-6 peak serum concentration", "setting": "[1]; oral 10 and 6 mg/kg", "result": 1, "unit": "ng/mL"},
      {"measurement": "IL-12 peak serum concentration", "setting": "[1]; oral 10 and 6 mg/kg", "result": "~10", "unit": "ng/mL"},
      {"measurement": "MCP-1 peak serum concentration", "setting": "[1]; oral 10 and 6 mg/kg", "result": "~10", "unit": "ng/mL"},
      {"measurement": "Time of peak serum cytokine concentrations post-dose", "setting": "[1]; oral dosing", "result": 2, "unit": "h"}
    ]},
    {"molecule": "CCCCC(C)(CO)Nc1nc(N)nc2cc(F)cnc12", "note": "(stereo not drawn) [Example 98]", "values": [
      {"measurement": "Patients in whom increases in HIV-specific polyfunctional CD8 T cells were seen", "setting": "[2]; 100 nM", "result": "4 of 5"},
      {"measurement": "Median HIV-specific polyfunctional CD8 T cells (% proliferating CD8+ cells double positive for IFN-γ and TNF-α)", "setting": "[2]; 100 nM", "result": 0.93, "unit": "%"},
      {"measurement": "Patients in whom increases in HIV-specific polyfunctional CD8 T cells were seen", "setting": "[2]; 1000 nM", "result": "4 of 5"},
      {"measurement": "Fold increase of median HIV-specific polyfunctional CD8 T cells", "setting": "[2]; 1000 nM with HIV specific peptide pool vs vehicle, p<0.05", "result": 7.1, "unit": "fold"},
      {"measurement": "Median HIV-specific polyfunctional CD8 T cells (% proliferating CD8+ cells double positive for IFN-γ and TNF-α)", "setting": "[2]; 1000 nM", "result": 0.92, "unit": "%"}
    ]},
    {"molecule": "CCC[C@@H](CO)Nc1nc(N)nc2cc(F)c(F)cc12", "note": "[Example 119, (S)-2-((2-amino-6,7-difluoroquinazolin-4-yl)amino)pentan-1-ol, reference compound]", "values": [
      {"measurement": "Subjects with ≥2-Fold-Activation (%)", "setting": "[3]; 156 nM", "result": "(67) %"},
      {"measurement": "Geometric Mean with ≥2-Fold-Activation", "setting": "[3]; 156 nM", "result": 4.2, "unit": "fold"},
      {"measurement": "Range with ≥2-Fold-Activation", "setting": "[3]; 156 nM", "result": "3.6-4.9 fold"},
      {"measurement": "N with ≥2-Fold-Activation", "setting": "[3]; 156 nM", "result": "2 of 3"},
      {"measurement": "Fold HIV-1 Activation", "setting": "[3]; 156 nM, one value per subject (IDs 151-155)", "result": "3.6 fold and 4.9 fold and 0.4 fold"},
      {"measurement": "Subjects with ≥2-Fold-Activation (%)", "setting": "[3]; 625 nM", "result": "(60) %"},
      {"measurement": "Geometric Mean with ≥2-Fold-Activation", "setting": "[3]; 625 nM", "result": 4.1, "unit": "fold"},
      {"measurement": "Range with ≥2-Fold-Activation", "setting": "[3]; 625 nM", "result": "3.4-4.8 fold"},
      {"measurement": "N with ≥2-Fold-Activation", "setting": "[3]; 625 nM", "result": "3 of 5"},
      {"measurement": "Fold HIV-1 Activation", "setting": "[3]; 625 nM, one value per subject (IDs 151-155)", "result": "3.4 fold and 4.1 fold and 4.8 fold and 0.3 fold and 0.5 fold"},
      {"measurement": "Subjects with ≥2-Fold-Activation (%)", "setting": "[3]; 2,500 nM", "result": "(100) %"},
      {"measurement": "Geometric Mean with ≥2-Fold-Activation", "setting": "[3]; 2,500 nM", "result": 3.6, "unit": "fold"},
      {"measurement": "Range with ≥2-Fold-Activation", "setting": "[3]; 2,500 nM", "result": "2.2-5.2 fold"},
      {"measurement": "N with ≥2-Fold-Activation", "setting": "[3]; 2,500 nM", "result": "5 of 5"},
      {"measurement": "Fold HIV-1 Activation", "setting": "[3]; 2,500 nM, one value per subject (IDs 151-155)", "result": "4.1 fold and 4.2 fold and 3.2 fold and 5.2 fold and 2.2 fold"},
      {"measurement": "Geometric Mean with ≥2-Fold-Activation", "setting": "[3]; 156, 625, or 2500 nM", "result": 4.1, "unit": "fold"},
      {"measurement": "Range with ≥2-Fold-Activation", "setting": "[3]; 156, 625, or 2500 nM", "result": "2.2-5.2 fold"},
      {"measurement": "N with ≥2-Fold-Activation", "setting": "[3]; 156, 625, or 2500 nM", "result": "5 out of 5 and 5 of 5"}
    ]},
    {"molecule": "IL-15: interleukin-15, used at 1 nM as a separate latency reversal stimulus", "values": [
      {"measurement": "Subjects with ≥2-Fold-Activation (%)", "setting": "[3]; IL-15 1 nM", "result": 66, "unit": "%"},
      {"measurement": "Fold HIV-1 Activation, Geometric Mean", "setting": "[3]; IL-15 1 nM, N = 6", "result": 2.9, "unit": "fold"},
      {"measurement": "N with ≥2-Fold-Activation", "setting": "[3]; IL-15 1 nM", "result": "4 of 6"},
      {"measurement": "Fold HIV-1 Activation", "setting": "[3]; IL-15 1 nM, one value per subject (IDs 205-210)", "result": "1.6 fold and 2.6 fold and 3.3 fold and 4.4 fold and 6.3 fold and 1.4 fold"}
    ]}
  ]
}
